Source: US8729074B2, “Inhibitors of PI3 kinase” (Amgen Inc., priority 2009, dated 2014)

Columns and labels:
PI3Kα [1] = biological target: T1, PI3Kα (Homo sapiens (Human), UniProt P42336); assay: In vitro PI3K AlphaScreen assay; type: biochemical; conditions: average if run more than once
Experimental: In Vitro PI3K AlphaScreen® Assay
The PI3K AlphaScreen® assay (PerkinElmer, Waltham, Mass.) measures the activity of a panel of four phosphoinositide 3-kinases: PI3Kα, PI3Kβ, PI3Kγ, and PI3Kδ. Each of these enzymes phosphorylates the 3′-hydroxyl group on phosphatidylinositiol (4,5)-bisphosphate (PIP2) to produce phosphatidylinositol (3,4,5)-trisphosphate (PIP3). This phosphorylation activity is measured using a GST-tagged PIP3 binding protein (Echelon Biosciences, Salt Lake City, Utah), an anti-GST-tagged Acceptor bead, and streptavidin-Donor bead. […] In the absence of this interaction, proximity of the Donor and Acceptor beads is decreased, producing a loss of luminescent signal which is inversely proportional to PI3K activity.
The enzyme reaction buffer is made using sterile water (Baxter, Deerfield, Ill.) and 50 mM Tris HCl pH 7, 14 mM MgCl2, 2 mM sodium cholate, and 100 mM NaCl. 2 mM DTT is added fresh the day of the experiment. The AlphaScreen® reaction buffer is made using sterile water and 10 mM Tris HCl pH 7.5, 150 mM NaCl, 0.10% Tween 20, and 30 mM EDTA. 1 mM DTT is added fresh the day of the experiment.
The source plates for this assay are 384-well Greiner clear polypropylene plates containing test compounds at 5 mM and diluted 1:2 over 22 points. Columns 23 and 24 contain only DMSO as these are designated for positive and negative controls. Source plates are replicated into 384-well Optiplates (PerkinElmer, Waltham, Mass.), 0.5 μL/well, to make assay-ready plates.
The different PI3K isoforms are each diluted in enzyme reaction buffer to 2× working solutions. […] Two different 2× substrate solutions are made in enzyme reaction buffer. In one solution, PI(4,5)P2 (Echelon Biosciences, Salt Lake City, Utah) is diluted to 10 μM and ATP is diluted to 20 μM. This solution is used in the assays testing PI3Kα and PI3Kβ. In a second solution, PI(4,5)P2 is diluted to 10 μM and ATP is diluted to 8 μM. This solution is used in the assays testing PI3Kγ and PI3Kδ.
The AlphaScreen® reaction solutions are made using beads from the anti-GST AlphaScreen® kit (PerkinElmer, Waltham, Mass.). Two solutions are made in Alphascreen reaction buffer to 4× working concentrations. In one solution, biotinylated-IP4 (Echelon Biosciences, Salt Lake City, Utah) is diluted to 40 nM and streptavadin-Donor Beads are diluted to 80 μg/mL. In the second solution, PIP3-binding protein (Echelon Biosciences, Salt Lake City, Utah) is diluted to 40 nM and anti-GST-Acceptor Beads are diluted to 80 μg/mL. 10 μL/well of enzyme reaction buffer is added to Column 24 of the assay ready plates in place of enzyme. This is done for plates in the PI3Kα, β, and δ assays.
Using a 384-well dispensing Multidrop (Titertek, Huntsville, Ala.), 10 μL/well of 2× enzyme (PI3Kα, β, δ) is added to Columns 1-23 of the appropriate assay ready plates (for PI3Kγ 10 μL is added to Columns 1-24). 10 μL/well of the appropriate substrate solution (the solution with 20 μM ATP for PI3Kα and β assays, and the solution with […] for PI3Kγ and δ assays) is then added to Columns 1-24 of the plates. Plates are then incubated at room temperature for 20 minutes.
In the dark, 10 μL/well of the Donor Bead solution is added to Columns 1-24 of the plates to quench the enzyme reaction. The plates are incubated at room temperature for 30 minutes. Still in the dark, 10 μL/well of the Acceptor Bead solution is also added to Columns 1-24 of the plates. The plates are then incubated in the dark for 1.5 hours. The plates are read on an Envision Multilabel Plate Reader (PerkinElmer, Waltham, Mass.) with a 680 nm excitation filter and a 520-620 nm emission filter.
Activity data for the compounds tested in the assay is provided in Table 1 under the column heading PI3Kα AlphaScreen®.

PI3Kα [2] = biological target: T1, PI3Kα; assay: In vitro PI3 kinase enzyme assay (PI3K ATPLoss); type: biochemical; conditions: average if run more than once
Experimental: Recombinant Expression of PI3K Enzymes
Full length p110 subunits of PI3K α, β and δ, N-terminally labeled with polyHis tag, can be co-expressed with p85 with Baculo virus expression vectors in sf9 insect cells. P110/p85 heterodimers can be purified by sequential Ni-NTA, Q-HP, Superdex-100 chromatography. Purified α, β and δ isozymes can be stored at −20° C. in 20 mM Tris, pH 8, 0.2M NaCl, 50% glycerol, 5 mM DTT, 2 mM Na cholate. […] The γ isozyme can be purified by sequential Ni-NTA, Superdex-200, Q-HP chromatography. The γ isozyme can be stored frozen at −80° C. in NaH2PO4, pH 8, 0.2M NaCl, 1% ethylene glycol, 2 mM β-mercaptoethanol.
In Vitro PI3 Kinase Enzyme Assays (PI3K ATPLoss)
PI3K enzyme assays (alpha, beta, delta and gamma) can be performed in 25 μL with the above final concentrations of components in white polyproplyene plates. Phosphatidyl inositol phosphoacceptor, PtdIns(4,5)P2 (e.g., P4508) can be obtained from Echelon Biosciences, Salt Lake City, Utah. […] Test compounds can be dissolved in DMSO and diluted with three-fold serial dilutions. The compound in DMSO (1 μL) may be added per test well, and the inhibition relative to reactions containing no compound, with and without enzyme can be determined. After assay incubation at RT, the reaction can be stopped and residual ATP can be determined by addition of an equal volume of a commercial ATP bioluminescence kit (Perkin Elmer EasyLite, Perkin Elmer, Waltham, Mass.) according to the manufacturer's instructions, and detected using an Analyst GT luminometer.

mTOR = mTOR (Homo sapiens (Human), UniProt P42345); assay: In vitro mTOR Lanthascreen assay; type: biochemical; conditions: average if run more than once
Sequence of mTOR (P42345 1360-2549): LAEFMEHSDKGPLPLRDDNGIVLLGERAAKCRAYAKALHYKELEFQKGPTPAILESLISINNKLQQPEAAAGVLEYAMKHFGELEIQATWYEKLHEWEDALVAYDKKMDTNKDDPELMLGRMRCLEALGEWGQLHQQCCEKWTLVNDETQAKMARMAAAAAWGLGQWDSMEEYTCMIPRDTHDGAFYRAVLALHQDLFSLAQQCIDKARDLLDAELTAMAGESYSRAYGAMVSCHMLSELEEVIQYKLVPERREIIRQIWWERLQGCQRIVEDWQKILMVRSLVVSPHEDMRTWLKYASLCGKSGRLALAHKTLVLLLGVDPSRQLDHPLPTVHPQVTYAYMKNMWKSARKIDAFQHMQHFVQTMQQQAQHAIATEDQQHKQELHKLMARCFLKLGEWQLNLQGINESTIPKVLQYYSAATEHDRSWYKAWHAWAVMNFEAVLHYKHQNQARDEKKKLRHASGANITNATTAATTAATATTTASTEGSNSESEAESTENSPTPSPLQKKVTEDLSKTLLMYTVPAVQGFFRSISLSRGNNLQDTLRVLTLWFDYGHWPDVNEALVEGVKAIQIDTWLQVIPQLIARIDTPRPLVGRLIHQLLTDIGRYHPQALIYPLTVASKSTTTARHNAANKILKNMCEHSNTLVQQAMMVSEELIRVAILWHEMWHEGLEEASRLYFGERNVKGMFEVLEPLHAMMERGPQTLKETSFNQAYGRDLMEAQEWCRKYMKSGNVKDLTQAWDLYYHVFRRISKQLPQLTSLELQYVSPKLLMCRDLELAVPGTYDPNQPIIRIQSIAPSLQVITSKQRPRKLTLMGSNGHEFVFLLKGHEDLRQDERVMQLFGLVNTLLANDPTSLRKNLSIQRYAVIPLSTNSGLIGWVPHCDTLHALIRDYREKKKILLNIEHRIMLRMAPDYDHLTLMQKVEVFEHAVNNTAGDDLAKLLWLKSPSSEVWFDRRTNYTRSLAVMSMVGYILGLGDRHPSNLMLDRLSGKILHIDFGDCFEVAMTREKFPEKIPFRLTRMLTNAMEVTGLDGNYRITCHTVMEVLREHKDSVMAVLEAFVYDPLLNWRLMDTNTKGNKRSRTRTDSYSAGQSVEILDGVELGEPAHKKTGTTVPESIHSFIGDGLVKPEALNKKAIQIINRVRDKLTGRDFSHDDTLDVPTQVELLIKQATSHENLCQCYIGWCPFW
Source text: The Invitrogen (Carlsbad, Calif.) mammalian target of rapamycin (mTOR) Lanthascreen assay can be used to quantitate mTOR kinase activity in an in vitro setting. Active mTOR phosphorylates eukaryotic translation initiation factor 4E binding protein 1 (4E-BP1) on residue threonine 46. This phosphorylation event can be detected with a phospho-specific terbium (Tb) labeled Ab, in turn bringing the Tb label in close proximity to the GFP tagged 4E-BP 1 and allowing for time-resolved fluorescence resonance energy transfer (TR-FRET), which correlates 4E-BP1 phosphorylation levels with mTOR kinase activity.
Enzyme reaction buffer can be prepared in deionized water containing 50 mM HEPES (pH 7.5), 0.01% Polysorbate 20, 1 mM EGTA, and 10 mM MnCl2.
Dilutions of the compound to be tested can be prepared in 96-well polypropylene plates (Fisher Scientific, Waltham, Mass.). One row represents a 10-point dose of compound diluted 1:3 in enzyme reaction buffer and 20% dimethyl sulfoxide (DMSO). The top concentration for all compounds is 36 μM. Wells 6 and 12 can serve as the no compound (DMSO only) and high compound controls.
An mTOR substrate solution can prepared in enzyme reaction buffer containing 1600 nM green fluorescent protein tagged eukaryotic translation initiation factor 4E binding protein 1 (GFP-4E-BP1) (Invitrogen, Carlsbad, Calif.) and 28 uM adenosine triphosphate (ATP) (Calbiochem, Gibbstown, N.J.).
mTOR enzyme (Invitrogen, Carlsbad, Calif.) can be diluted in enzyme reaction buffer to a working concentration of 100 ng/mL.
The enzyme assay can be run in 384 well low volume assay plates (Corning, Corning, N.Y.). 2.5 uL of substrate solution containing GFP-4E-BP1 and ATP can be added to appropriate wells in the assay plate followed by 2.5 μL of compound dilutions. 5 μL of appropriately diluted mTOR enzyme can be added and the reaction allowed to proceed for 1 hour at room temperature. Final reagent concentrations in the enzyme assay are 50 ng/mL mTOR, 400 nM GFP-4E-BP1, and 7 μM ATP.
The enzyme assay can be terminated upon the addition of 10 μL of 20 mM EDTA and 4 nM Tb-labeled anti-phospho-4E-BP1 [T46] antibody (Invitrogen, Carlsbad, Calif.). The assay plate can then be incubated at room temperature for 1 hour and results read on a Tecan Safire II plate reader (Tecan, Männedorf, Switzerland).

[3] = tested on: phosphorylation of Akt at Serine 473 in U87 MG cells; assay: pAkt AlphaScreen (U87 cell); type: cell-based; conditions: Homo sapiens, U-87 MG, 2 h; pAkt Ser473, U87 MG cells, compound two hours; average if run more than once
Experimental: pAkt AlphaScreen (U87 Cell)
The pAkt AlphaScreen® assay (PerkinElmer, Waltham, Mass.) determines whether there is phosphorylation of Akt at Serine 473 by recruitment of a phosphospecific antibody. This assay was performed using U87 MG cells. The U87 growth media consists of MEM (Gibco, Carlsbad, Calif.) supplemented with 10% FBS (Gibco), 1× Non-Essential Amino Acids (Gibco) and 1× Penicillin/Streptomycin/Glutamine (Gibco). The cells were maintained weekly using 0.05% Trypsin (Gibco) and replated in 150 mm TC—Treated Culture Dishes (Corning, Corning, N.Y.).
The first day of the assay, the adherent cells were trypsinized, media was added to the loose cells and cells were mixed to a homogenous mixture. 0.5 ml of the homogenous mixture was counted on the Beckman Coulter® Vi-CELL™ XR (Fullerton, Calif.). 50 frames of cells were counted and the number of viable cells was determined. The cells were then diluted to 0.25 million cells per ml, and centrifuged at 200 rcf for 5 minutes. The media was removed and the cells were reconstituted in fresh media for plating. The cells were plated at 20 μl per well on the PerkinElmer® Flexprop PLUS in Low Volume 384 Well White Tissue Culture Plates (Corning) with a final cell density of 5K cells per well. The plates were incubated overnight at 37° Celsius, 5% CO2.
On the second day, the compound plates were prepared, the cells were treated with compound and the pAkt reaction mix was added to the cell lysate. 384 well compound plates were prepared containing 1 μl of compound per well starting at 5 mM and diluted 1:2 across the row, resulting in a 22 well serial dilution. 39 μl of growth media was added to the compound plate in rows 1-22 using the PerkinElmer® Flexprop PLUS resulting in a DMSO concentration of 2.5%. The cell plates and diluted compound plates were put onto the VELOCITY11™ VPREP™ 384 ST where the compound plate was mixed and 5 μl of serially diluted compound or controls was added to the cell plate. The final concentration of the compounds was 25 μM serially diluted to 11.9 pM in 0.5% DMSO. The cell plates were then incubated with compound for two hours at 37° Celsius, 5% CO2. After two hours, the media in the cell plates was aspirated using the BioTek® ELx405HT plate washer (Winooski, Vt.) removing the majority of media and compound without disturbing the adherent U87 cells. The following assay reagents are components of the SureFire® Akt (Ser 473) Phosphorylation 50K Point Kit (TGR BioSciences, Adelaide, Australia) and an IgG Detection Kit (PerkinElmer, Waltham, Mass.). 5 μl of 1× Lysis Buffer was added to each well using the PerkinElmer® Flexprop PLUS. The plates were then incubated at room temperature on a shaker for ten minutes. The AlphaScreen® reaction was prepared under low light conditions (subdued or green light) including p-Akt (Ser 473) Reaction Buffer, Dilution Buffer, Activation Buffer, Acceptor Beads and Donor Beads at a ratio of 40:20:10:1:1 respectively. The AlphaScreen® reaction was added to the cell lysate at 6 μl per well using the PerkinElmer® Flexprop PLUS. The plates were placed in a humid environment to reduce edge effects and incubated overnight at room temperature with restricted air flow in the dark.
On the final day of the experiment, the plates were read on the PerkinElmer® EnVision™ 2103 Multilable Reader using the standard AlphaScreen® readout. The POC is calculated and the data is analyzed to report the IC50 IP for pAkt at Serine 473.
Activity data for the compounds tested in the PI3K cell based Akt assay is provided in Table 1 under the column heading U87

T1 sequence (P42336 whole entry): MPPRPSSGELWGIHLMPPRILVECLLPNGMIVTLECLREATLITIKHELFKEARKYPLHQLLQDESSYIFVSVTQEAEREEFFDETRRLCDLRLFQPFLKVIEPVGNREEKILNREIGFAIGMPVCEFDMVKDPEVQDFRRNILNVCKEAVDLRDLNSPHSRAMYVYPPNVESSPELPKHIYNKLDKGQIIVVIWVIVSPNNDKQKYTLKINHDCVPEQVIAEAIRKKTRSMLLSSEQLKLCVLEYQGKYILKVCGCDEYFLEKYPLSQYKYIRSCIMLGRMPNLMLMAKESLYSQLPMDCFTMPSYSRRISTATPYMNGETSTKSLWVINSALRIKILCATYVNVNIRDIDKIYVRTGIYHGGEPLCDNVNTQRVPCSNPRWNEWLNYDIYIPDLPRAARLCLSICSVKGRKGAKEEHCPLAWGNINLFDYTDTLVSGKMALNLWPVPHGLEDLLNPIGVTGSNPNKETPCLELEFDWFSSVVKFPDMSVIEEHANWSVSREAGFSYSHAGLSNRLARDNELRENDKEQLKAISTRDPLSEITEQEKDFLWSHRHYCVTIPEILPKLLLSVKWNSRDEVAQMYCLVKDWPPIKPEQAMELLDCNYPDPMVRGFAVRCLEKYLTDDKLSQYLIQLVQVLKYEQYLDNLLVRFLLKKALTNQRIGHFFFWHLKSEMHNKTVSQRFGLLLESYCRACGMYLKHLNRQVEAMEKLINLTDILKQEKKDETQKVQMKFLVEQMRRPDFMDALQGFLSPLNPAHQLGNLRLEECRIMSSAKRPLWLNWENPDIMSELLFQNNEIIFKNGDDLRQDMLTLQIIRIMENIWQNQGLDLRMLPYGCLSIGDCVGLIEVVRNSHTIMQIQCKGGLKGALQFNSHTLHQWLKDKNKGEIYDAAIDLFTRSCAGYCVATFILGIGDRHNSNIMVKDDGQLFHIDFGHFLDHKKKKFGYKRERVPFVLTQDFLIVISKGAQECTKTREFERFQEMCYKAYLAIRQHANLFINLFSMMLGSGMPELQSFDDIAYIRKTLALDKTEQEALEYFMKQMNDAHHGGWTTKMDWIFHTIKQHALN
T1 sequence (P27986 whole entry partner): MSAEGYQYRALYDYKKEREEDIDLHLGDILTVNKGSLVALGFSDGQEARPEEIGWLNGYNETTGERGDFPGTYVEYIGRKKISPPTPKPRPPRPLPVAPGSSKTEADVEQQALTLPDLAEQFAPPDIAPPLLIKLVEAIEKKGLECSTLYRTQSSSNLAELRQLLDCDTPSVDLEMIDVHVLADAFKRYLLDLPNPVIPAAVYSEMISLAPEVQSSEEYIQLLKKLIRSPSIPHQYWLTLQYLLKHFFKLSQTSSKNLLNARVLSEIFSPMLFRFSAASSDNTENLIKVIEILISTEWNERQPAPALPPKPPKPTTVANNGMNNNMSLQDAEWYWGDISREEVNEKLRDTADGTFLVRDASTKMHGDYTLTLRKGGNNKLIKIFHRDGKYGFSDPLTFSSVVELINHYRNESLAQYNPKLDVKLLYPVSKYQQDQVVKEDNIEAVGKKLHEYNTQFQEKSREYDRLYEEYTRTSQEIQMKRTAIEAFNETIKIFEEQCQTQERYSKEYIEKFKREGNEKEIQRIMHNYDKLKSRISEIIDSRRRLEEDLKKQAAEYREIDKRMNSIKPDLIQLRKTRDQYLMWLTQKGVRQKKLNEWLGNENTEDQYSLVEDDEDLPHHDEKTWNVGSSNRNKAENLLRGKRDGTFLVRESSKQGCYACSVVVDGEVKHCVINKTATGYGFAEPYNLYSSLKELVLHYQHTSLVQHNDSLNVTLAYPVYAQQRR

| SMILES | Ki (PI3Kα [1]) [nM] | IC50 (PI3Kα [2]) [nM] | IC50 (mTOR) [nM] | IC50 [3] [nM] |
| --- | --- | --- | --- | --- |
| O=S(=O)(Nc1cncc(-c2cnc3ccccn23)c1)c1ccc(F)cc1 [Example 2, 4-Fluoro-N-(5-imidazo[1,2-a]pyridin-3-yl-3-pyridinyl)benzenesulfonamide] | 1290 | 931 |  |  |
| O=S(=O)(Nc1cc(-c2cnc3ncccn23)cnc1Cl)c1ccc(F)cc1 [Example 24, N-(2-Chloro-5-(imidazo[1,2-a]pyrimidin-3-yl)pyridin-3-yl)-4-fluorobenzenesulfonamide] | 378 | 781 | > 50000 |  |
| COc1cc(-c2cnc3ccc(N4C(=O)OC[C@@H]4Cc4ccccc4)cn23)cnc1OC [Example 15, (4S)-4-Benzyl-3-(3-(5,6-dimethoxy-3-pyridinyl)imidazo[1,2-a]pyridin-6-yl)-1,3-oxazolidin-2-one] | 286 |  |  | 6620 |
| O=c1n(Cc2ccccc2)ccc2ncc(-c3cnc(Cl)c(NS(=O)(=O)c4ccc(F)cc4)c3)n12 [Example 17, N-(5-(6-Benzyl-5-oxo-5,6-dihydroimidazo[1,2-c]pyrimidin-3-yl)-2-chloropyridin-3-yl)-4-fluorobenzenesulfonamide] | 465 |  | 180 |  |
| COc1cc(-c2cnc3ccc(N4C(=O)OC[C@H]4Cc4ccccc4)cn23)cnc1OC [Example 14, (4R)-4-Benzyl-3-(3-(5,6-dimethoxy-3-pyridinyl)imidazo[1,2-a]pyridin-6-yl)-1,3-oxazolidin-2-one] | 268 |  |  | 6970 |
